This is an account of results in ChEMBL document CHEMBL5316334, “Structure-Based Design of Novel Alkynyl Thio-Benzoxazepinone Receptor-Interacting Protein Kinase-1 Inhibitors: Extending the Chemical Space from the Allosteric to ATP Binding Pockets” (J Med Chem, 2023).

The structures appear in SMILES notation. Activity calls are given as the source filed them. The calls are words filed in the database; no cut-off is given here.

Assay [1] deals with Mus musculus. Put plainly: Anti-necroptosis activity against TNFalpha-induced C57BL/6 mouse systemic inflammatory response syndrome model assessed as protection of body temperature at 5 to 20 mg/kg, IG pretreated with compound followed by TNFalpha-stimulation and measured after 2 to 3 hrs by thermometer analysis. The class given is functional, organism-based. The settings on record: dose 5-20 mg/kg, time 2-3 hrs.

In the next assay the test system is HT-29. The experiment in a line: Cytotoxicity against human HT-29 cells assessed as reduction in cell viability measured for 16 to 24 hrs by Cell-titer-glo assay. It counts as functional. The settings on record: time 16-24 hrs.
The subject of assay [2] is Mus musculus. Put plainly: Anti-necroptic activity against mTNFalpha induced C57BL/6 mouse systemic inflammatory response syndrome model assessed as increase in survival rate 5 mg/kg, IG pretreated with compound for 1 hr followed by mTNFalpha injection and measured after 60 mins. The settings on record: time 2 hrs. The class given is functional.
Assay [3] has as its system Mus musculus. Put plainly: Anti-necroptic activity against mTNFalpha induced C57BL/6 mouse systemic inflammatory response syndrome model assessed as increase in survival rate 20 mg/kg, IG pretreated with compound for 1 hr followed by mTNFalpha injection and measured after 60 mins. The class given is functional. The settings on record: time 2 hrs.
The test system of another assay is L929. The experiment in a line: Anti-necroptosis activity against TNFalpha-induced mouse L929 cells assessed as cell viability preincubated for 1 hr followed by TNFalpha stimulation and measured after 18 hrs by Cell-titer-glo assay. It counts as functional, cell-based.

As a reminder, the CC50 is the concentration that lowers cell viability or growth by half. As to `CN1C(=O)[C@@H](NC(=O)c2n[nH]c(Cc3ccccc3)n2)COc2ccccc21` [GSK2982772], the outcome in the assay on Mus musculus [1] was Active. In the assay with HT-29, the CC50 is above 100000 nM. The values for the Activity in the assay on Mus musculus [2] and with Mus musculus [3] were 50% and 92%, respectively.

What is called EC50 is the concentration needed to bring the measured effect to its halfway point. Turning to `CN1C(=O)[C@@H](NC(=O)c2nnc(Cc3ccccc3)[nH]2)COc2ccc(C#CC(C)(C)O)cc21` [OCADUSERTIB], the half-maximal effective concentration (EC50) with L929 is below 1 nM.

Take `CN1C(=O)[C@@H](NC(=O)c2n[nH]c(Cc3ccccc3)n2)COc2ccc(N3CC4(CCOCC4)C3)cc21`: the 50% effective concentration (EC50) in the assay with L929 was below 1 nM.
